Measured values taken from paper PMC2716488, “Functional Expression of a DNA-Topoisomerase IB from Cryptosporidium parvum” (Journal of Biomedicine and Biotechnology, 2009).

Molecular target: T1, CpTopIB (Cryptosporidium parvum, UniProt Q5CY81)
T1 construct: gene cgd7_3350; expressed from YCpGAL in S. cerevisiae EKY3 (top1 deleted), purified on phosphocellulose and phenyl-sepharose; monomer; no tag mentioned
T1 sequence (Q5CY81 13-653): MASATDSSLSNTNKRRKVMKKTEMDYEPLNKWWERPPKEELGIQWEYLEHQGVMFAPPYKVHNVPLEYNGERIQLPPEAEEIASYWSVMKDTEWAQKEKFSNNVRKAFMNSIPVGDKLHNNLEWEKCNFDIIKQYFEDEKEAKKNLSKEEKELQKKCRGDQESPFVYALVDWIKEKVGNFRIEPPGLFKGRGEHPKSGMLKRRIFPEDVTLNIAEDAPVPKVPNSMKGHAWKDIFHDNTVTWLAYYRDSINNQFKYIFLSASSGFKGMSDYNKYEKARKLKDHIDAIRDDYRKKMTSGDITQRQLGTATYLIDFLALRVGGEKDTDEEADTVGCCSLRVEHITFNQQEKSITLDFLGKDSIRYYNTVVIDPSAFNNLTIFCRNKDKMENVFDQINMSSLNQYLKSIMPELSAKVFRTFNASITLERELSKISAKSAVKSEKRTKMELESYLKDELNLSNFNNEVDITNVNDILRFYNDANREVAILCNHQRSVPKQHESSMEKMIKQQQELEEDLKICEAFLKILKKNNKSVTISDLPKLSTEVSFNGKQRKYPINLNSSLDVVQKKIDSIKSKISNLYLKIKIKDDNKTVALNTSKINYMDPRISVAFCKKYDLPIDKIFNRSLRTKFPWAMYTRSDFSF
Assay: DNA cleavage assay, nicked DNA on agarose gel
Assay type: biochemical
Details: supercoiled phiX174 RF I DNA, pH 7.5, 50 mM KCl, 1% DMSO, 30 or 37°C; stabilises the enzyme-DNA cleavable complex

| Compound | nicked-DNA increase at 10 and 100 μM |
| --- | --- |
| CC[C@@]1(O)C(=O)OCc2c1cc1n(c2=O)Cc2cc3ccccc3nc2-1 [CPT, camptothecin] | There is a dose-dependent nicked-DNA increase for CPT and topotecan |
| CC[C@@]1(O)C(=O)OCc2c1cc1n(c2=O)Cc2cc3c(CN(C)C)c(O)ccc3nc2-1 [topotecan] | There is a dose-dependent nicked-DNA increase for CPT and topotecan |
